Key:
[1] = test system: metHb; assay: metHb levels in clinical trial subjects receiving LMTM; format: in vivo, human
Text: In order to understand this effect further the inventors investigated whether the low oxygen saturation in these patients is due to elevation in metHb levels. There was no difference in metHb levels at baseline between subjects with low SpO2 and those with SpO2 levels in the normal range.
Therefore, LMTM is able to act on haemoglobin over a range of doses in such a way as to enhance oxygen saturation in the blood by a novel mechanism unrelated to its known effects on metHb.

[2] = Oxygen saturation (SpO2) in clinical trial subjects with low oxygen saturation, pre-dose vs 4 hrs after a single dose; format: in vivo, human
Text: The present inventors have used data available for patients participating in clinical trials to determine whether LMT enhances oxygen saturation of blood. Data were available for 18 subjects with oxygen saturation <94% at baseline (lower limit of normal range is
These patients recorded a variety of respiratory or other conditions of various degrees of severity which it was suspected may have contributed to the detected hypoxemia, including sleep apnoea, insomnia (which may be indicative of Paroxysmal nocturnal dyspnea or paroxysmal nocturnal dyspnoea), asbestosis, oedema, asthma, bronchitis, allergies, angioedema, pneumonia, acute myocardial infarction/ hypertension, Coronary artery disease with angioplasty and stent insertion, transient ischaemic attacks (TIA), hypothyroidism, diabetes, syncope, tachycardia and sepsis. […]

[3] = LMT at high concentrations, oral doses in the range 150-250 mg/day

| metHb levels ([1]; LMTM at higher doses / high dosages over a period of time, FIG. 3) | metHb levels [1, 3] | SMILES | oxygen saturation at 4 hours ([2]; single dose of LMT at 4 mg and ~100 mg (mean of 75, 100, 125 mg), 18 subjects with oxygen saturation <94% at baseline, pre-dose vs 4 hrs post-dose) | SpO2 levels [2, 3] |
| --- | --- | --- | --- | --- |
| systematically increases | – | CN(C)c1ccc2c(c1)Sc1cc(N(C)C)ccc1N2 [LMTM, leuco-methylthioninium bis(hydromethanesulfonate)] | significantly increased | – |
| – | measurable increase | CN(C)c1ccc2c(c1)Sc1cc(N(C)C)ccc1N2 [LMT] | – | increase SpO2 levels |

Reference: patent US20230158040A1, “METHYLTHIONINIUM COMPOUNDS FOR USE IN THE TREATMENT OF HYPOXEMIA” (WisTa Laboratories Ltd., priority 2020, published 2023)
